Measured values from US9814704B2, “Substituted pyrrolo[2,3-b]pyridines as MLK inhibitors” (The University of Rochester, priority 2008, dated 2017).

target: MLK3 (Homo sapiens (Human), UniProt Q16584); experiment: Radiometric Filter Plate MLK3 Assay; format: biochemical; settings: 200 ng (130 nM) MLK3, 1 μM inactive MKK7b, 2 μM cold ATP (Km), 33P ATP, twenty minute incubation; read-out: MK3 IC50
Protocol: Radiometric Filter Plate MLK3 Assay
After a twenty minute incubation, the reactions were washed through filter plates and read on a scintillation counter. Results are shown in Table 4 below, in which +++ indicates ≦0.1 μM, ++ indicates >0.1 μM and ≦1 μM, and + indicates >1 μM.

Chain of MLK3 (Q16584 whole entry): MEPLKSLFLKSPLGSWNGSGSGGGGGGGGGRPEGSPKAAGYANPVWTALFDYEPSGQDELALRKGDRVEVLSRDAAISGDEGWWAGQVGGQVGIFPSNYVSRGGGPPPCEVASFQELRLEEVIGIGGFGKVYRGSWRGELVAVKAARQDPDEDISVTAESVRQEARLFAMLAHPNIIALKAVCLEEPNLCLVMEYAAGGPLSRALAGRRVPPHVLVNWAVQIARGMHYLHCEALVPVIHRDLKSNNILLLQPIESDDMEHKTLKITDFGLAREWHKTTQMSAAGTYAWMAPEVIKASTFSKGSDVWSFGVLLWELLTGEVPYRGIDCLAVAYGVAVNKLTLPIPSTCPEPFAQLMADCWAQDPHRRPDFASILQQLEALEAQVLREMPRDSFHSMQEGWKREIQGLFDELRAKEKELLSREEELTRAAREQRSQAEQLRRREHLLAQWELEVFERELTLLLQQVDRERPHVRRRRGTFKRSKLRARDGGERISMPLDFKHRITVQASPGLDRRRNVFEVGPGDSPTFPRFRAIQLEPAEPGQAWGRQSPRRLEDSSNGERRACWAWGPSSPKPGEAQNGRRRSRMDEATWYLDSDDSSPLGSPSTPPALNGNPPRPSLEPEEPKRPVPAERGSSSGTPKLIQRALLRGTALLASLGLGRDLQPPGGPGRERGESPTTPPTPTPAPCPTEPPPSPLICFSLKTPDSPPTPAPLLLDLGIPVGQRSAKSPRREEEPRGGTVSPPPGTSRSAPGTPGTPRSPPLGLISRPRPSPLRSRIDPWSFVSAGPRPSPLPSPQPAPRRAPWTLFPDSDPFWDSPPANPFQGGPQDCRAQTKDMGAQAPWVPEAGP

SMILES	IC50 [nM]
COc1ccc(-c2cnc3[nH]c(=O)n(-c4ccc5[nH]ccc5c4)c3n2)cc1F [Example 49, 6-(3-fluoro-4-methoxyphenyl)-1-(1H-indol-5-yl)-1H-imidazo[4,5-b]pyrazin-2(3H)-one]	> 1000
COc1cc(-c2cnc3[nH]c(=O)n(-c4ccc5[nH]ccc5c4)c3n2)ccc1O [Example 55, 6-(4-hydroxy-3-methoxyphenyl)-1-(1H-indol-5-yl)-1H-imidazo[4,5-b]pyrazin-2(3H)-one]	< 100
O=c1[nH]c2ncc(-c3ccc4cc[nH]c4c3)nc2n1-c1ccc2[nH]ccc2c1 [Example 56, 1-(1H-indol-5-yl)-6-(1H-indol-6-yl)-1H-imidazo[4,5-b]pyrazin-2(3H)-one]	> 1000
COc1cc(-c2cnc3[nH]c(=O)n(-c4ccc5[nH]ccc5c4)c3n2)ccc1OCCN1CCOCC1 [Example 57, 1-(1H-indol-5-yl)-6-(3-methoxy-4-(2-morpholinoethoxy)phenyl)-1H-imidazo[4,5-b]pyrazin-2(3H)-one]	< 100
O=c1[nH]c2ncc(-c3cc(F)c(O)c(F)c3)nc2n1-c1ccc2[nH]ccc2c1 [Example 59, 6-(3,5-difluoro-4-hydroxyphenyl)-1-(1H-indol-5-yl)-1H-imidazo[4,5-b]pyrazin-2(3H)-one]	< 100
COc1cc(-c2cnc3[nH]c(=O)n(-c4ccc5[nH]ccc5c4)c3n2)ccc1N [Example 60, 6-(4-amino-3-methoxyphenyl)-1-(1H-indol-5-yl)-1H-imidazo[4,5-b]pyrazin-2(3H)-one]	< 100
O=c1[nH]c2ncc(-c3cc(F)cc(F)c3)nc2n1-c1ccc2[nH]ccc2c1 [Example 61, 6-(3,5-difluorophenyl)-1-(1H-indol-5-yl)-1H-imidazo[4,5-b]pyrazin-2(3H)-one]	> 1000
COc1cc(-c2cnc3[nH]c(=O)n(-c4ccc5[nH]ccc5c4)c3n2)cc(OC)c1O [Example 62, 6-(4-hydroxy-3,5-dimethoxyphenyl)-1-(1H-indol-5-yl)-1H-imidazo[4,5-b]pyrazin-2(3H)-one]	< 100
COc1cc(OC)cc(-c2cnc3[nH]c(=O)n(-c4ccc5[nH]ccc5c4)c3n2)c1 [Example 65, 6-(3,5-dimethoxyphenyl)-1-(1H-indol-5-yl)-1H-imidazo[4,5-b]pyrazin-2(3H)-one]	> 1000
CN1CCN(c2cc(-c3cnc4[nH]c(=O)n(-c5ccc6[nH]ccc6c5)c4n3)ccn2)CC1 [Example 66, 1-(1H-indol-5-yl)-6-(2-(4-methylpiperazin-1-yl)pyridin-4-yl)-1H-imidazo[4,5-b]pyrazin-2(3H)-one]	> 1000
COc1ccc(-n2c(=O)[nH]c3ncc(-c4ccc(OC)c(OC)c4)nc32)cc1 [Example 69, 6-(3,4-dimethoxyphenyl)-1-(4-methoxyphenyl)-1H-imidazo[4,5-b]pyrazin-2(3H)-one]	> 1000
COc1ccc(-n2c(=O)[nH]c3ncc(-c4ccc(O)cc4)nc32)cc1 [Example 70, 6-(4-hydroxyphenyl)-1-(4-methoxyphenyl)-1H-imidazo[4,5-b]pyrazin-2(3H)-one]	> 1000
COc1ccc(-n2c(=O)[nH]c3ncc(-c4ccncc4)nc32)cc1 [Example 71, 1-(4-methoxyphenyl)-6-(pyridin-4-yl)-1H-imidazo[4,5-b]pyrazin-2(3H)-one]	> 1000
COc1cc(-c2cnc3[nH]c(=O)n(-c4ccc5[nH]c(C)cc5c4)c3n2)cc(OC)c1OC [Example 72, 1-(2-methyl-1H-indol-5-yl)-6-(3,4,5-trimethoxyphenyl)-1H-imidazo[4,5-b]pyrazin-2(3H)-one]	< 100
Cc1cc2cc(-n3c(=O)[nH]c4ncc(-c5cc(Cl)cc(Cl)c5)nc43)ccc2[nH]1 [Example 73, 6-(3,5-dichlorophenyl)-1-(2-methyl-1H-indol-5-yl)-1H-imidazo[4,5-b]pyrazin-2(3H)-one]	> 1000
COc1cc(-c2cnc3[nH]c(=O)n(C4CCCC4)c3n2)cc(OC)c1OC [Example 74, 1-cyclopentyl-6-(3,4,5-trimethoxyphenyl)-1H-imidazo[4,5-b]pyrazin-2(3H)-one]	< 100
COc1ccc(-c2cnc3[nH]c(=O)n(C4CCCC4)c3n2)cc1OC [Example 75, 1-cyclopentyl-6-(3,4-dimethoxyphenyl)-1H-imidazo[4,5-b]pyrazin-2(3H)-one]	> 1000
O=c1[nH]c2ncc(-c3ccncc3)nc2n1C1CCCC1 [Example 77, 1-cyclopentyl-6-(pyridin-4-yl)-1H-imidazo[4,5-b]pyrazin-2(3H)-one]	> 1000
O=c1[nH]c2ncc(-c3cc(Cl)cc(Cl)c3)nc2n1CC1CC1 [Example 80, 1-(cyclopropylmethyl)-6-(3,5-dichlorophenyl)-1H-imidazo[4,5-b]pyrazin-2(3H)-one]	> 1000
O=c1[nH]c2ncc(-c3ccc(O)cc3)nc2n1CC1CC1 [Example 81, 1-(cyclopropylmethyl)-6-(4-hydroxyphenyl)-1H-imidazo[4,5-b]pyrazin-2(3H)-one]	> 1000
O=c1[nH]c2ncc(-c3ccncc3)nc2n1CC1CC1 [Example 82, 1-(cyclopropylmethyl)-6-(pyridin-4-yl)-1H-imidazo[4,5-b]pyrazin-2(3H)-one]	> 1000
Cc1cc2cc(-n3c(=O)[nH]c4ncc(-c5ccncc5)nc43)ccc2[nH]1 [Example 85, 1-(2-methyl-1H-indol-5-yl)-6-(pyridin-4-yl)-1H-imidazo[4,5-b]pyrazin-2(3H)-one]	> 1000
O=c1[nH]c2ncc(-c3ccc(N4CCOCC4)cc3)nc2n1CC1CC1 [Example 86, 1-(cyclopropylmethyl)-6-(4-morpholinophenyl)-1H-imidazo[4,5-b]pyrazin-2(3H)-one]	> 1000
COc1ccc(-c2cnc3[nH]c(=O)n(-c4ccc5[nH]ncc5c4)c3n2)cc1OC [Example 87, 6-(3,4-dimethoxyphenyl)-1-(1H-indazol-5-yl)-1H-imidazo[4,5-b]pyrazin-2(3H)-one]	> 1000
O=c1[nH]c2ncc(-c3ccncc3)nc2n1-c1ccc2[nH]ncc2c1 [Example 88, 1-(1H-indazol-5-yl)-6-(pyridin-4-yl)-1H-imidazo[4,5-b]pyrazin-2(3H)-one]	> 1000
O=c1[nH]c2ncc(-c3ccc(N4CCOCC4)cc3)nc2n1-c1ccc2[nH]ncc2c1 [Example 89, 1-(1H-indazol-5-yl)-6-(4-morpholinophenyl)-1H-imidazo[4,5-b]pyrazin-2(3H)-one]	> 1000
O=c1[nH]c2ncc(-c3ccc(O)cc3)nc2n1-c1ccc2cn[nH]c2c1 [Example 92, 6-(4-hydroxyphenyl)-1-(1H-indazol-6-yl)-1H-imidazo[4,5-b]pyrazin-2(3H)-one]	> 1000

same assay, conditions: read-out: MK3 IC50

SMILES	IC50 [nM]
COc1ccc(-c2cnc3[nH]c(=O)n(-c4ccc5[nH]ccc5c4)c3n2)cc1N [Example 50, 6-(3-amino-4-methoxyphenyl)-1-(1H-indol-5-yl)-1H-imidazo[4,5-b]pyrazin-2(3H)-one]	100 to 1000
O=c1[nH]c2ncc(-c3ccc(N4CCOCC4)cc3)nc2n1-c1ccc2[nH]ccc2c1 [Example 52, 1-(1H-indol-5-yl)-6-(4-morpholinophenyl)-1H-imidazo[4,5-b]pyrazin-2(3H)-one]	100 to 1000
O=c1[nH]c2ncc(-c3ccc4[nH]ccc4c3)nc2n1-c1ccc2[nH]ccc2c1 [Example 53, 1,6-di(1H-indol-5-yl)-1H-imidazo[4,5-b]pyrazin-2(3H)-one]	100 to 1000
O=c1[nH]c2ncc(-c3cccc(O)c3)nc2n1-c1ccc2[nH]ccc2c1 [Example 54, 6-(3-hydroxyphenyl)-1-(1H-indol-5-yl)-1H-imidazo[4,5-b]pyrazin-2(3H)-one]	100 to 1000
O=c1[nH]c2ncc(-c3cc(F)c(O)cc3F)nc2n1-c1ccc2[nH]ccc2c1 [Example 58, 6-(2,5-difluoro-4-hydroxyphenyl)-1-(1H-indol-5-yl)-1H-imidazo[4,5-b]pyrazin-2(3H)-one]	100 to 1000
O=c1[nH]c2ncc(-c3ccc4c(c3)OCCO4)nc2n1-c1ccc2[nH]ccc2c1 [Example 63, 6-(2,3-dihydrobenzo[b][1,4]dioxin-6-yl)-1-(1H-indol-5-yl)-1H-imidazo[4,5-b]pyrazin-2(3H)-one]	100 to 1000
COc1cc(-c2cnc3[nH]c(=O)n(-c4ccc5[nH]ccc5c4)c3n2)ccc1OCCN1CCNCC1 [Example 67, 1-(1H-indol-5-yl)-6-(3-methoxy-4-(2-(piperazin-1-yl)ethoxy)phenyl)-1H-imidazo[4,5-b]pyrazin-2(3H)-one]	100 to 1000
COc1ccc(-n2c(=O)[nH]c3ncc(-c4cc(OC)c(OC)c(OC)c4)nc32)cc1 [Example 68, 1-(4-methoxyphenyl)-6-(3,4,5-trimethoxyphenyl)-1H-imidazo[4,5-b]pyrazin-2(3H)-one]	100 to 1000
O=c1[nH]c2ncc(-c3ccc(O)cc3)nc2n1C1CCCC1 [Example 76, 1-cyclopentyl-6-(4-hydroxyphenyl)-1H-imidazo[4,5-b]pyrazin-2(3H)-one]	100 to 1000
COc1cc(-c2cnc3[nH]c(=O)n(CC4CC4)c3n2)cc(OC)c1OC [Example 78, 1-(cyclopropylmethyl)-6-(3,4,5-trimethoxyphenyl)-1H-imidazo[4,5-b]pyrazin-2(3H)-one]	100 to 1000
COc1ccc(-c2cnc3[nH]c(=O)n(CC4CC4)c3n2)cc1OC [Example 79, 1-(cyclopropylmethyl)-6-(3,4-dimethoxyphenyl)-1H-imidazo[4,5-b]pyrazin-2(3H)-one]	100 to 1000
Cc1cc2cc(-n3c(=O)[nH]c4ncc(-c5ccc(O)cc5)nc43)ccc2[nH]1 [Example 84, 6-(4-hydroxyphenyl)-1-(2-methyl-1H-indol-5-yl)-1H-imidazo[4,5-b]pyrazin-2(3H)-one]	100 to 1000
COc1cc(-c2cnc3[nH]c(=O)n(-c4ccc5cn[nH]c5c4)c3n2)cc(OC)c1OC [Example 90, 1-(1H-indazol-6-yl)-6-(3,4,5-trimethoxyphenyl)-1H-imidazo[4,5-b]pyrazin-2(3H)-one]	100 to 1000
COc1ccc(-c2cnc3[nH]c(=O)n(-c4ccc5cn[nH]c5c4)c3n2)cc1OC [Example 91, 6-(3,4-dimethoxyphenyl)-1-(1H-indazol-6-yl)-1H-imidazo[4,5-b]pyrazin-2(3H)-one]	100 to 1000
